Test results from patent US20210330611A1, “THERAPY FOR NEUROLOGICAL DISEASES/DISORDERS” (priority 2020, published 2021).
Where a name gives a salt, the structure may show the parent alone. Read-outs that look alike come from different tables or passages of the source.

What was measured:
[1] = tested on: fibrin-induced microglia activation; experiment: Image-based assay of fibrin-induced microglia activation (HTS and dose response); type: cell-based, rat; conditions: primary microglia HTS, fibrin stimulation; for inhibition at 10 µM: Rattus norvegicus, Microglia, read-out: Fibrin % inhibition
[2] = tested on: LPS-induced microglia activation; experiment: Image-based assay of LPS-induced microglia activation (HTS and dose response); type: cell-based, rat; conditions: for inhibition at 10 µM: Rattus norvegicus, Microglia, read-out: LPS % inhibition
[3] = tested on: fibrin- and LPS-induced microglia activation; experiment: cells; type: cell-based, rat
primary rat microglia [4] = tested on: primary rat microglia
primary rat microglia [5] = experiment: Cell toxicity (dead cells, size <150 μm2) in coated fibrin (cFib) assay; conditions: primary microglia HTS;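 also: share of dead cells sized under 150 µm2 at 10 µM in fibrin-stimulated microglia HTS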
[6] = cell size >800 μm2 as marker of activation
[7] = classification by fibrin and LPS inhibition in HTS
[8] = fibrin stimulation, cell size <150 μm2 as marker of toxicity
[9] = primary microglia HTS, LPS stimulation, compounds at 10 μM
[10] = classification by fibrin and LPS inhibition, HTS at 10 μM
[11] = fibrin assay, dead cells (size <150 μm2), compounds at 10 μM
[12] = quadrant by fibrin and LPS inhibition, HTS at 10 μM
[13] = fibrin assay, dead cells (size <150 μm2)

Compound | inhibition at 10 µM [1, 6] [%] | inhibition at 10 µM ([2]; 48 h) [%] | Quadrant (FIG. 5b) [3, 7] | LPS % cell toxicity (primary rat microglia [4]; rat) [%] | Fibrin % cell toxicity (primary rat microglia [5]; [8]) [%] | inhibition at 10 µM ([1]; compounds at 10 μM) [%] | inhibition at 10 µM [2, 9] [%] | Quadrant (FIG. 5b) [3, 10] | Fibrin % cell toxicity (primary rat microglia [5]; [11]) [%] | further results
CCOc1ccc(NC(C)=O)cc1 [Phenacetin] | -5 | 16 | Q4 | 0 | 1 | – | – | – | – | –
CN1CCN(c2cc3c(cc2F)c(=O)c(C(=O)O)cn3-c2ccc(F)cc2)CC1 [Difloxacin Hydrochloride] | – | – | – | 1 | – | 25 | 33 | Q4 | 1 | –
C=C1/C(=C\C=C2/CCC[C@]3(C)[C@@H]([C@H](C)CCCC(C)C)CC[C@@H]23)C[C@@H](O)C[C@@H]1O [Alfacalcidol] | – | – | – | 0 | – | -26 | 4 | – | – | Quadrant (FIG. 5b) [3, 12]: Q4; Fibrin % cell toxicity (primary rat microglia [5]; [13]): 1%
O=S(=O)(c1cccc2cnccc12)N1CCCNCC1 [Fasudil Hydrochloride] | – | – | – | 0 | – | -72 | -21 | Q4 | 1 | –
C[C@@H](CO)NC(=O)[C@@H]1C=C2c3cccc4[nH]cc(c34)C[C@H]2N(C)C1 [Ergonovine] | – | – | – | 0 | – | – | – | Q4 | 1 | Fibrin % inhibition ([1]; compounds at 10 μM, 10 µM): −23%; LPS % inhibition ([2]; primary microglia HTS, LPS stimulation, compounds at 10 μM, 10 µM): −10%
CO[C@H]1/C=C/O[C@@]2(C)Oc3c(C)c(O)c4c(O)c(c(/C=N/N5CCN(C6CCCC6)CC5)c(O)c4c3C2=O)NC(=O)/C(C)=C\C=C\[C@H](C)[C@H](O)[C@@H](C)[C@@H](O)[C@@H](C)[C@H](OC(C)=O)[C@@H]1C [Rifapentine] | -23 | -7 | Q4 | 0 | 1 | – | – | – | – | –
COc1ccc(-c2cc(=O)c3c(O)cc(O[C@@H]4O[C@H](CO[C@@H]5O[C@@H](C)[C@H](O)[C@@H](O)[C@H]5O)[C@@H](O)[C@H](O)[C@H]4O)cc3o2)cc1O [Diosmin] | – | – | – | 0 | – | -12 | 10 | Q4 | 1 | –
Pizotyline Malate | – | – | Q4 | – | 1 | – | – | – | – | Fibrin % inhibition [1, 6]: 8%; LPS % inhibition [2]: 37%; LPS % cell toxicity (primary rat microglia [4]): 1%
CN1CCC[C@@H]1Cc1c[nH]c2ccc(CCS(=O)(=O)c3ccccc3)cc12 [Eletriptan Hydrobromide] | – | – | – | 0 | – | -14 | 12 | Q4 | 1 | –
Clc1ccc(C(Cn2ccnc2)OCc2csc3c(Cl)cccc23)c(Cl)c1 (stereo not drawn) [Sertaconazole] | -25 | 11 | Q4 | 0 | 1 | – | – | – | – | –
CCOC(N)=O [Ethyl carbamate] | – | – | – | 0 | – | 44 | 27 | Q4 | 1 | –
CC(=O)Nc1ccc(OC(=O)c2ccccc2O)cc1 [Acetaminosalol] | – | – | – | 1 | – | -15 | 20 | – | – | Quadrant (FIG. 5b) [3, 12]: Q4; Fibrin % cell toxicity (primary rat microglia [5]; [13]): 1%
Cc1cc(-c2ccc(/N=N/c3ccc4c(S(=O)(=O)O)cc(S(=O)(=O)O)c(N)c4c3O)c(C)c2)ccc1/N=N/c1ccc2c(S(=O)(=O)O)cc(S(=O)(=O)O)c(N)c2c1O [Evans Blue] | – | – | – | 0 | – | -37 | 7 | Q4 | 0 | –
CN1CCN(c2c(F)cc3c(=O)c(C(=O)O)cn4c3c2SCC4)CC1 [Rufloxacin Hydrochloride] | -3 | 21 | Q4 | 0 | 1 | – | – | – | – | –
CCc1ccc(CCOc2ccc(CC3SC(=O)NC3=O)cc2)nc1 (stereo not drawn) [Pioglitazone] | 2 | 33 | Q4 | 1 | 1 | – | – | – | – | –
O=C(Nc1ccccc1)c1ccccc1O [Salicylanilide] | 1 | 13 | Q4 | 0 | 1 | – | – | – | – | –
C=CC1=C(C)c2cc3[nH]c(cc4nc(cc5[nH]c(cc1n2)c(C)c5CCC(=O)O)C(CCC(=O)O)=C4C)c(C)c3C=C [Protoporphyrin Ix] | -70 | 2 | Q4 | 0 | 1 | – | – | – | – | –
O=C(O)c1cc(=O)c2c(OCC(O)COc3cccc4oc(C(=O)O)cc(=O)c34)cccc2o1 [Cromoglicic acid] | – | – | – | 0 | – | -28 | 8 | Q4 | 0 | –
CCOc1ccc(Cc2nccc3cc(OCC)c(OCC)cc23)cc1OCC [Ethaverine Hydrochloride] | – | – | – | 1 | – | 41 | 24 | Q4 | 1 | –
CCC(=O)O[C@](Cc1ccccc1)(c1ccccc1)[C@H](C)CN(C)C [Dextropropoxyphene] | – | – | – | 0 | – | -25 | 15 | Q4 | 1 | –
C[C@H](N[C@@H](CCc1ccccc1)C(=O)O)C(=O)N1Cc2ccccc2C[C@H]1C(=O)O [Quinaprilat] | -5 | 5 | Q4 | 0 | 1 | – | – | – | – | –
CCOc1nc2cccc(C(=O)OCc3oc(=O)oc3C)c2n1Cc1ccc(-c2ccccc2-c2noc(=O)[nH]2)cc1 [Azilsartan medoxomil] | – | – | – | 1 | – | 5 | 31 | – | – | Quadrant (FIG. 5b) [3, 12]: Q4; Fibrin % cell toxicity (primary rat microglia [5]; [13]): 0%
CC(=O)[C@H]1CC[C@H]2[C@@H]3C=CC4=CC(=O)CC[C@@]4(C)[C@@H]3CC[C@]12C [Dydrogesterone] | – | – | – | 0 | – | -11 | 4 | Q4 | 0 | –
COc1cc2nc(N(C)CCCNC(=O)C3CCCO3)nc(N)c2cc1OC.Cl (stereo not drawn) [Alfuzosin Hydrochloride, Alfuzosin] | – | – | – | – | – | – | – | – | – | Fibrin % inhibition ([1]; compounds at 10 μM): 1%; LPS % inhibition [2, 9]: 18%; Quadrant (FIG. 5b) [3, 12]: Q4; LPS % cell toxicity (primary rat microglia [4]): 0%; Fibrin % cell toxicity (primary rat microglia [5]; [13]): 1%
CN1C(C)(C)CCCC1(C)C [Pempidine Tartrate] | -19 | 13 | Q4 | 0 | 1 | – | – | – | – | –
CC(C)[N+](C)(CCOC(=O)C1c2ccccc2Oc2ccccc21)C(C)C [Propantheline] | -7 | 20 | Q4 | 0 | 1 | – | – | – | – | –
CCN1CCC[C@H]1CNC(=O)c1c(OC)ccc(Br)c1OC [Remoxipride] | -14 | 3 | Q4 | 0 | 1 | – | – | – | – | –
